# Values of other authors in patent publication US20060177499A1, “Method for the manufacture of a pharmaceutical composition in the form of tablets containing a fibrate and tablets obtained according to the method” (priority 2003, published 2006).
# Details: long-term treatment; e.g. rhabdomyolysis, asthenia, increase of transaminases, hepatic toxicity
compound,measurement,value
"CC(C)OC(=O)C(C)(C)Oc1ccc(C(=O)c2ccc(Cl)cc2)cc1 [fenofibrate, Isopropyl 2-[4-(4-chlorobenzoyl)phenoxy]-2-methylpropionate]",adverse effects,not completely devoid of adverse effects
